Assay [1] is described as follows: Enzyme induced staining of giant vesicles. Particulars: giant POPC vesicles, 9.8 μM dye phosphate, PLAP added. In kind it is biochemical. The procedure:
Enzyme induced staining of giant vesicles. Giant POPC vesicles were prepared by electroswelling^27,28. 5 μl of a 2 mM lipid solution in diethylether/methanol (9:1, v/v) were applied to a pair of planar electrodes of indium tin oxide coated with 70 nm of silica. After evaporation of the solvent under reduced pressure (0.1 mbar), 2 ml of 300 mM sucrose were added and giant vesicle formation was promoted by applying AC voltage to the electrodes. After formation was complete, vesicles were transferred to 35 mm polypropylene cell culture dishes (BD Biosciences Europe, Le Pont de Claix, France) and diluted in the same buffer. They were used the same day.
For enzyme kinetic measurements at room temperature, 400 μl of the giant vesicle stock solution were transferred to a culture dish containing 3,600 μl buffer (20 mM Tris, 100 mM NaCl, 120 mM Glucose, pH 8.1). […] The fluorescence of a selected giant vesicle with a diameter of 10 to 40 μm was observed using a microscope (Axioskop, Zeiss, Oberkochen, Germany) equipped with a 100 water immersion objective and a b/w CCD camera (Sony ICX 285 Chip, Theta System, Gröbenzell, Germany). […] The fluorescence was detected through the dichroic mirror and a long pass filter (510 nm). […] Images were recorded every 10 or 20 seconds before and after addition of the phosphatase. […]

Another assay relates to human erythrocytes. In words: Enzyme induced staining of red blood cells. In kind it is cell-based. As to conditions: 9.8 μM, PLAP added. As to the method: Enzyme induced staining of red blood cells. Human erythrocytes were prepared according to a slightly modified standard procedure^29. 4 ml of blood of MJH were sucked into a tube coated with EDTA (Vacutainer 367,861, Becton Dickinson, Meylan, France) and centrifuged for 10 min at 1600 g. The pellet (˜1 ml) was washed three times by resuspension and centrifugation for 10 min at 1600 g using 15 ml of a 300 mOsm Tris buffer (50 mM Tris, 110 mM NaCl, pH 7.4). Finally, the pellet was diluted with an equal volume of the same buffer additionally containing 1 mM CaCl2.
The staining experiments with erythrocytes were similar to those with giant vesicles. […]
Di-4-ASPP phosphate was added to human erythrocytes attached to a culture dish to a concentration of 9.8 μM. Membrane fluorescence was measured in the same setup as with giant vesicles. Fluorescence was weaker than with giant vesicles, which we attribute to fluorescence quenching by hemoglobin and the smaller size of the erythrocytes. […]
Plots of the intensity of a row of pixels cutting through the image of an erythrocyte at its maximum diameter are shown in B. The normalized maximum brightness minus the background signal versus time is shown in C. The ratio of final and initial fluorescence was F∞/F0=11-25 with an average of 15. These values are similar to the fluorescence enhancement on giant vesicles. […]

Structures are written as SMILES.

As for `CCCCN(CCCC)c1ccc(/C=C/c2cc[n+](CCCOP(=O)([O-])O)cc2)cc1` [Di-4-ASPP phosphate], in assay [1], the “ratio of fluorescence intensities F∞/F0” value is 9-13. For the same molecule, in the assay with human erythrocytes, the “ratio of final and initial fluorescence F∞/F0, average” value stood at 15; the “ratio of final and initial fluorescence F∞/F0, range” value is recorded as 11-25.
